Literature values as cited in patent publication US20200352905A1, “6-(2,4-DICHLOROPHENYL)-5-[4-[(3S)-1-(3-FLUOROPROPYL)PYRROLIDIN-3-YL]OXYPHENYL]-8,9-DIHYDRO-7H-BENZO[7]ANNULENE-2-CARBOXYLIC ACID FOR USE IN METASTATIC OR ADVANCED BREAST CANCER PATIENTS” (SANOFI, priority 2019, published 2020).
Where two headings read alike, the source gives them in different places.

Experiments:
CYP3A [1] = conditions: cited from earlier work
CYP3A [2] = conditions: cited from earlier work; remark: listed apart in the source
CYP2C8 = conditions: cited from earlier work
advanced breast cancer = conditions: prior CDK4/6, mTOR, fulvestrant not allowed, cited from earlier work
[3] = moderate CYP3A inhibitors, victim midazolam (oral)
[4] = strong CYP3A inhibitors, victim midazolam (oral)
[5] = victim Sildenafil, 62.5-125 mg BID 8 weeks
[6] = victim Quetiapine, 200 mg TID (26 days)
[7] = victim Midazolam, 1000 mg QD (14 days)
[8] = victim Midazolam, 1000 mg BID (14 days)
[9] = victim Triazolam, 200-400 mg QD 28 days
[10] = victim Nifedipine, 500 mg 4 times daily 5 days
[11] = victim Verapamil, 100 mg QD 21 days
[12] = victim Midazolam, 140 mg QD (10 days)
[13] = victim Indinavir, 500 mg TID 14 days
[14] = EFECT trial 2003-2005, fulvestrant single agent arm, n=270, setting 2L+
[15] = PALOMA-3 trial 2013-2014, fulvestrant single agent arm, n=138, setting 2L+
[16] = SANDPIPER trial 2015-2017, fulvestrant single agent arm, n=134, setting 2L+
[17] = SoFEA trial 2004-2010, fulvestrant single agent arm, n=178, setting 2L+

COCCc1ccc(Cl)c(CN(C(=O)[C@H]2CNCC[C@@H]2c2ccc(OCCOc3c(Cl)cc(C)cc3Cl)nc2)C2CC2)c1 [ACT-178882]
AUC Ratio (CYP3A [1]; [3]): 2.19

CC(C)c1cc(C(C)C)c(CC(=O)NS(=O)(=O)Oc2c(C(C)C)cccc2C(C)C)c(C(C)C)c1 [Avasimibe]
% of AUC decrease (CYP3A [2]; victim Midazolam, 750 mg/day (7 days)): 93.5%

CC(C)(C)NC(=O)N[C@H](C(=O)N1C[C@H]2[C@@H]([C@H]1C(=O)NC(CC1CCC1)C(=O)C(N)=O)C2(C)C)C(C)(C)C (stereo partly drawn) [Boceprevir]
AUC Ratio (CYP3A [1]; [4]): 5.05

COc1ccccc1Oc1c(NS(=O)(=O)c2ccc(C(C)(C)C)cc2)nc(-c2ncccn2)nc1OCCO [Bosentan]
% of AUC decrease (CYP3A [2]; [5]): 69%
% oral CL increase (CYP3A [2]; [5]): 239.8%

NC(=O)N1c2ccccc2C=Cc2ccccc21 [Carbamazepine]
% of AUC decrease (CYP3A [2]; [6]): 86.6%
% oral CL increase (CYP3A [2]; [6]): 643.1%
Max % of AUC decrease or CL increase (CYP2C8; substrate dasabuvir, 200 mg QD (3 days) then BID (21 days)): 70.3%

CC[C@H]1OC(=O)[C@H](C)[C@@H](O[C@H]2C[C@@](C)(OC)[C@@H](O)[C@H](C)O2)[C@H](C)[C@@H](O[C@@H]2O[C@H](C)C[C@H](N(C)C)[C@H]2O)[C@](C)(OC)C[C@@H](C)C(=O)[C@H](C)[C@@H](O)[C@]1(C)O [Clarithromycin]
AUC Ratio (CYP3A [1]; [4]): 8.39

Cc1nc2c([nH]1)-c1ccccc1N(C(=O)c1ccc(NC(=O)c3ccccc3-c3ccccc3)cc1)CC2 [Conivaptan]
AUC Ratio (CYP3A [1]; [4]): 5.76

CCCCc1oc2ccc(NS(C)(=O)=O)cc2c1C(=O)c1ccc(OCCCN(CCCC)CCCC)cc1 [Dronedarone]
AUC Ratio (CYP3A [1]; moderate CYP3A inhibitors, victim simvastatin): 3.66

O=C1Nc2ccc(Cl)cc2[C@@](C#CC2CC2)(C(F)(F)F)O1 [Efavirenz]
% of AUC decrease (CYP3A [2]; victim Simvastatin acid, 600 mg QD 28 days): 60.4%

CNC(=O)c1ccc(N2C(=S)N(c3ccc(C#N)c(C(F)(F)F)c3)C(=O)C2(C)C)cc1F [Enzalutamide]
% of AUC decrease (CYP3A [2]; victim Midazolam, 160 mg QD (85 ± 3 days)): 85.9%

Cc1cc(C#N)cc(C)c1Oc1nc(Nc2ccc(C#N)cc2)nc(N)c1Br [Etravirine]
% of AUC decrease (CYP3A [2]; victim Sildenafil, 800 mg BID 13.5 days): 56.7%

OC(Cn1cncn1)(Cn1cncn1)c1ccc(F)cc1F [Fluconazole]
AUC Ratio (CYP3A [1]; [3]): 4.93

O=c1c(-c2ccc(O)cc2)coc2cc(O)cc(O)c12 [Genistein]
% of AUC decrease (CYP3A [2]; [7]): 13.7%
% oral CL increase (CYP3A [2]; [7]): 136.9%

CC[C@H](Nc1ncnc2[nH]cnc12)c1nc2cccc(F)c2c(=O)n1-c1ccccc1 [Idelalisib]
AUC Ratio (CYP3A [1]; [4]): 5.15

CCC(C)n1ncn(-c2ccc(N3CCN(c4ccc(OCC5COC(Cn6cncn6)(c6ccc(Cl)cc6Cl)O5)cc4)CC3)cc2)c1=O (stereo not drawn) [Itraconazole]
AUC Ratio (CYP3A [1]; [4]): 10.80

CC(=O)N1CCN(c2ccc(OCC3COC(Cn4ccnc4)(c4ccc(Cl)cc4Cl)O3)cc2)CC1 (stereo not drawn) [Ketoconazole]
AUC Ratio (CYP3A [1]; in vivo, po): 15.90

CN[C@@H](C)C(=O)N[C@H](C(=O)N1CCC[C@H]1c1nc(C(=O)c2ccc(F)cc2)cs1)C1CCCCC1 [LCL 161]
AUC Ratio (CYP3A [1]; [4]): 8.80

CCc1nn(CCO)c(CC)c1Oc1cc(C#N)cc(C#N)c1 [Lersivirine]
% of AUC decrease (CYP3A [2]; [8]): 51.4%
% oral CL increase (CYP3A [2]; [8]): 105.5%

COCC(=O)O[C@]1(CCN(C)CCCc2nc3ccccc3[nH]2)CCc2cc(F)ccc2[C@@H]1C(C)C [Mibefradil]
AUC Ratio (CYP3A [1]; [4]): 8.86

Clc1ccc(C(c2ccccc2Cl)C(Cl)Cl)cc1 (stereo not drawn) [Mitotane]
% of AUC decrease (CYP3A [2]; victim Midazolam, Maximum of 3.5 g TID (chronic therapy)): 94.5%

NC(=O)C[S+]([O-])C(c1ccccc1)c1ccccc1 (stereo not drawn) [Modafinil]
% of AUC decrease (CYP3A [2]; [9]): 57.6%
% oral CL increase (CYP3A [2]; [9]): 35.7%

CCOc1ccc2ccccc2c1C(=O)N[C@@H]1C(=O)N2[C@@H]1SC(C)(C)[C@@H]2C(=O)O [Naficillin]
% of AUC decrease (CYP3A [2]; [10]): 62.6%
% oral CL increase (CYP3A [2]; [10]): 145.1%

CCc1nn(CCCN2CCN(c3cccc(Cl)c3)CC2)c(=O)n1CCOc1ccccc1 [Nefazodone]
AUC Ratio (CYP3A [1]; [4]): 5.44

Cc1c(O)cccc1C(=O)N[C@@H](CSc1ccccc1)[C@H](O)CN1C[C@H]2CCCC[C@H]2C[C@H]1C(=O)NC(C)(C)C [Nelfinavir]
AUC Ratio (CYP3A [1]; [4]): 5.29

CCC1(c2ccccc2)C(=O)NC(=O)NC1=O [Phenobarbital]
% of AUC decrease (CYP3A [2]; [11]): 76.6%
% oral CL increase (CYP3A [2]; [11]): 400.9%

O=C1NC(=O)C(c2ccccc2)(c2ccccc2)N1 [Phenytoin]
% of AUC decrease (CYP3A [2]; victim Nisoldipine, 200-450 mg/day (chronic treatment)): 89.5%

CC[C@@H]([C@H](C)O)n1ncn(-c2ccc(N3CCN(c4ccc(OC[C@@H]5CO[C@@](Cn6cncn6)(c6ccc(F)cc6F)C5)cc4)CC3)cc2)c1=O [Posaconazole]
AUC Ratio (CYP3A [1]; [4]): 6.23

CO[C@H]1/C=C/O[C@@]2(C)Oc3c(C)c(O)c4c(c3C2=O)C2=NC3(CCN(CC(C)C)CC3)NC2=C(NC(=O)/C(C)=C\C=C\[C@H](C)[C@H](O)[C@@H](C)[C@@H](O)[C@@H](C)[C@H](OC(C)=O)[C@@H]1C)C4=O [Rifabutin]
% oral CL increase (CYP3A [2]; victim Delavirdine, 300 mg QD 14 days): 458.0%

CO[C@H]1/C=C/O[C@@]2(C)Oc3c(C)c(O)c4c(O)c(c(/C=N/N5CCN(C)CC5)c(O)c4c3C2=O)NC(=O)/C(C)=C\C=C\[C@H](C)[C@H](O)[C@@H](C)[C@@H](O)[C@@H](C)[C@H](OC(C)=O)[C@@H]1C [Rifampin]
Max % of AUC decrease or CL increase (CYP2C8; substrate pioglitazone, 600 mg QD (6 days)): 53.8%
Max % of AUC decrease or CL increase (CYP2C8; substrate repaglinide, 600 mg QD (7 days)): 79.6%
Max % of AUC decrease or CL increase (CYP2C8; substrate rosiglitazone, 600 mg QD (6 days)): 66.4%

CC(C)(C)NC(=O)[C@@H]1C[C@@H]2CCCC[C@@H]2CN1C[C@@H](O)[C@H](Cc1ccccc1)NC(=O)[C@H](CC(N)=O)NC(=O)c1ccc2ccccc2n1 [Saquinavir]
AUC Ratio (CYP3A [1]; [4]): 5.18

CC(C)[C@H](O)C(=O)N[C@@H](C)C(=O)N[C@@H]1C(=O)N(C)CCc2ccccc21 [Semagacestat]
% of AUC decrease (CYP3A [2]; [12]): 76.4%
% oral CL increase (CYP3A [2]; [12]): 324.6%

COc1ccc2c(c1)N(C(=O)OC(C)C)[C@@H](CSC)C(=S)N2 [Talviraline]
% of AUC decrease (CYP3A [2]; [13]): 61.7%
% oral CL increase (CYP3A [2]; [13]): 181.2%

CCC[C@H](NC(=O)[C@@H]1[C@H]2CCC[C@H]2CN1C(=O)[C@@H](NC(=O)[C@@H](NC(=O)c1cnccn1)C1CCCCC1)C(C)(C)C)C(=O)C(=O)NC1CC1 [Telaprevir]
AUC Ratio (CYP3A [1]; [4]): 13.5

CC[C@H]1OC(=O)[C@H](C)C(=O)[C@H](C)[C@@H](O[C@@H]2O[C@H](C)C[C@H](N(C)C)[C@H]2O)[C@](C)(OC)C[C@@H](C)C(=O)[C@H](C)[C@H]2N(CCCCn3cnc(-c4cccnc4)c3)C(=O)O[C@]12C [Telithromycin]
AUC Ratio (CYP3A [1]; [4]): 6.2

CC(C)CN(C[C@@H](O)[C@H](Cc1ccccc1)NC(=O)O[C@H]1CCOC1)S(=O)(=O)c1ccc(N)cc1 [amprenavir]
AUC Ratio (CYP3A [1]; in vivo): 2.93

C[C@@H](O[C@H]1OCCN(Cc2n[nH]c(=O)[nH]2)[C@H]1c1ccc(F)cc1)c1cc(C(F)(F)F)cc(C(F)(F)F)c1 [aprepitant]
AUC Ratio (CYP3A [1]; [3]): 3.29

COC(=O)N[C@H](C(=O)N[C@@H](Cc1ccccc1)[C@@H](O)CN(Cc1ccc(-c2ccccn2)cc1)NC(=O)[C@@H](NC(=O)OC)C(C)(C)C)C(C)(C)C [atazanavir]
AUC Ratio (CYP3A [1]; moderate CYP3A inhibitors, victim maraviroc): 3.57

CC(=O)N1CCN([C@H]2CCN(C(=O)N(C)[C@H](C)c3cc(C(F)(F)F)cc(C(F)(F)F)c3)[C@@H](c3ccc(F)cc3C)C2)CC1 [casopitant]
AUC Ratio (CYP3A [1]; [3]): 3.13

C[C@]12CC[C@@H]3c4ccc(O)cc4C[C@@H](CCCCCCCCC[S+]([O-])CCCC(F)(F)C(F)(F)F)[C@H]3[C@@H]1CC[C@@H]2O (stereo partly drawn) [fulvestrant]
CBR (advanced breast cancer; [14]): 32.2%
ORR (advanced breast cancer; [14]): 7.4%
CBR (advanced breast cancer; [15]): 36%
ORR (advanced breast cancer; [15]): 11%
CBR (advanced breast cancer; [16]): 37.3%
ORR (advanced breast cancer; [16]): 11.9%
CBR (advanced breast cancer; [17]): 31%
ORR (advanced breast cancer; [17]): 8%

C[C@@H](c1nc(-c2ccc(C#N)cc2)cs1)[C@](O)(Cn1cncn1)c1cc(F)ccc1F [isavuconazole]
AUC Ratio (CYP3A [1]; [3]): 2.03

N#Cc1ccnc(N2C(=O)CC[C@H]2C(=O)N(c2cncc(F)c2)[C@H](C(=O)NC2CC(F)(F)C2)c2ccccc2Cl)c1 [ivosidenib]
Max % of AUC decrease or CL increase (CYP2C8; substrate repaglinide, 1200 mg QD (19 days), PBPK): 59.0 (PBPK) %

Cc1ccccc1-c1cc(N2CCN(C)CC2)ncc1N(C)C(=O)C(C)(C)c1cc(C(F)(F)F)cc(C(F)(F)F)c1 [netupitant]
AUC Ratio (CYP3A [1]; [3]): 2.44

Cc1cn(-c2cc(NC(=O)c3ccc(C)c(Nc4nccc(-c5cccnc5)n4)c3)cc(C(F)(F)F)c2)cn1 [nilotinib]
AUC Ratio (CYP3A [1]; [3]): 2.40

CCC1C(C)=NN=C(c2ccc(OC)c(OC)c2)c2cc(OC)c(OC)cc21 (stereo not drawn) [tofisopam]
AUC Ratio (CYP3A [1]; [3]): 2.36
